What all share (assay): microbe, parasite or virus in culture
What all share (format): cell-based

In test [1] the test system is HCV 1b RLuc cells (dicistronic genotype 1b Con1 replicon, RLuc reporter). To be noted: Hepatitis C virus, read-out: 1b (nM). Put shortly:
(§1)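 Renilla luciferase HCV replicon cells: dicistronic 1b Con1, 1a H77 or 2a JFH-1 replicons, or a JFH-1 chimera carrying J6 NS5A (M31 present). Compound in DMSO serial dilutions, 72 h incubation, then lysis and luciferase read. EC50 by non-linear regression.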

The subject of test [2] is HCV 1a RLuc cells (dicistronic genotype 1a H77 replicon, RLuc reporter). Particulars: Hepatitis C virus, read-out: 1a. Summed up:
as §1

Test [3] concerns HCV 3a RLuc cells (NS5A chimeric genotype 1b Con1 replicon with consensus genotype 3a NS5A gene). To be noted: Hepatitis C virus. Summed up: (§2)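 Replicon cells stably carrying the listed RLuc-encoding dicistronic replicons were seeded and treated with DMSO serial dilutions of compound (10 mM stocks) diluted into culture medium. After 72 h, cells were lysed and Renilla luciferase activity measured. EC50 was derived by non-linear regression.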

Test [4] deals with HCV 4a Rluc cells (NS5A chimeric genotype 1b Con1 replicon with genotype 4a NS5A gene). Particulars: Hepatitis C virus, read-out: 4a. Summed up: as §2
The subject of test [5] is HCV 2a JFH-1 Rluc cells (dicistronic genotype 2a JFH-1 replicon, RLuc reporter). To be noted: Hepatitis C virus, genotype 2a JFH-1 replicon, read-out: 2a JFH. Put shortly:
as §1
A general note: A replicon is a self-replicating genome or part of one, used to study replication in cells.

Where [6] appears, read: 72 h, Table 2, genotype 1a H77 replicon, 72 hours.
Where [7] appears, read: read-out: 3a, Table 2, genotype 3a NS5A chimeric replicon.
The mark [8] stands for this setting: read-out: 3a, genotype 3a replicon.
Where [9] appears, read: genotype 1a H77 replicon, RLuc reporter.
Where [10] appears, read: read-out: 3a, genotype 3a NS5A chimeric 1b Con1 replicon.

Where two headings read alike, the source gives them in different places.

As to `COC(=O)N[C@H](C(=O)N1CCC[C@H]1c1ncc(-c2ccc3c(c2)OCc2cc(-c4ccc5nc([C@@H]6[C@H]7CC[C@H](C7)N6C(=O)[C@@H](c6ccccc6)N(N)C(=O)OC)[nH]c5c4)ccc2-3)[nH]1)C(C)C` [Example 74], the EC50 is 0.006 nM in test [1] (72 h); 0.001 to 0.999 nM in test [2] (setting [6]); 0.001 to 0.99 nM in test [3] (setting [7]); 0.001 to 0.99 nM in test [4]; 0.001 to 0.999 nM in test [5] (72 h, Table 2, 72 hours).

In the case of `COC(=O)N[C@H](C(=O)N1CC2(C[C@H]1c1ncc(-c3ccc4cc(-c5ccc(-c6cnc([C@@H]7CCCN7C(=O)[C@H](NC(=O)OC)c7ccccc7)[nH]6)cc5)ccc4c3)[nH]1)OCCO2)C1CCOCC1` [Example 44], the EC50 is 0.032 nM in test [1] (72 h); 0.001 to 0.999 nM in test [2] (setting [6]); 1 to 4.99 nM in test [3] (setting [7]); 0.001 to 0.99 nM in test [4]; 0.001 to 0.999 nM in test [5] (72 h, Table 2, 72 hours).

For the compound `COC(=O)NC(C(=O)N1[C@@H]2CC[C@@H](C2)[C@H]1c1nc2ccc(-c3ccc4c(c3)C(F)(F)c3cc(-c5c[nH]c([C@H]6CCCN6C(=O)[C@H](NC(=O)OC)c6ccccc6)n5)ccc3-4)cc2[nH]1)[C@@H](C)OC` (stereo partly shown) [Example 75], the EC50 in test [1] (72 h) is 0.005 nM; in test [2] (setting [6]), 0.001 to 0.999 nM; in test [3] (setting [7]), 0.001 to 0.99 nM; in test [4], 0.001 to 0.99 nM; in test [5] (72 h, Table 2, 72 hours) it was 0.001 to 0.999 nM.

For the compound `COC(=O)N[C@H](C(=O)N1[C@@H]2CC[C@@H](C2)[C@H]1c1ncc(-c2ccc(-c3ccc4cc(-c5cnc([C@@H]6CCCN6C(=O)[C@H](NC(=O)OC)c6ccccc6)[nH]5)ccc4c3)cc2)[nH]1)C1CCOCC1` [Example 71], the EC50 in test [1] (72 h) was 0.013 nM; in test [2] (setting [6]) it was 0.001 to 0.999 nM; in test [3] (setting [7]), 0.001 to 0.99 nM; in test [4], 0.001 to 0.99 nM; in test [5] (72 h, Table 2, 72 hours), 0.001 to 0.999 nM.

Turning to `COC(=O)NC(C(=O)N1CCC[C@H]1c1ncc(-c2ccc(-c3ccc4c(ccc5nc([C@@H]6[C@H]7CC[C@H](C7)N6C(=O)[C@@H](NC(=O)OC)C(C)C)[nH]c54)c3)cc2)[nH]1)C1CCOCC1` (stereo partly shown) [Example 69], the EC50 is 0.035 nM in test [1] (72 h); 0.001 to 0.999 nM in test [2] (setting [6]); 0.001 to 0.99 nM in test [3] (setting [7]); 0.001 to 0.99 nM in test [4]; 0.001 to 0.999 nM in test [5] (72 h, Table 2, 72 hours).

Take `COC(=O)N[C@@H](C(=O)N1[C@@H]2CC[C@@H](C2)[C@H]1c1ncc(-c2ccc(-c3ccc4c(ccc5nc([C@@H]6C[C@H]7C[C@H]7N6C(=O)[C@H](NC(=O)OC)c6ccccc6)[nH]c54)c3)cc2)[nH]1)c1ccccc1` [Example 334]: the EC50 in test [1] is 0.009 nM; in test [2] (genotype 1a replicon) it was 0.001 to 0.999 nM; in test [3] (setting [8]) it was 0.001 to 0.99 nM; in test [4], 0.001 to 0.99 nM; in test [5], 0.001 to 0.999 nM.

Turning to `COC(=O)N[C@H](C(=O)N1CC(F)(F)C[C@H]1c1ncc(-c2ccc(-c3ccc4cc(-c5cnc([C@@H]6CCCN6C(=O)[C@H](NC(=O)OC)c6ccccc6)[nH]5)ccc4c3)cc2)[nH]1)C1CCOCC1` [Example 224], the EC50 was 0.008 nM in test [1]; 0.001 to 0.999 nM in test [2] (setting [9]); 0.001 to 0.99 nM in test [3] (setting [10]); 0.001 to 0.99 nM in test [4]; 0.001 to 0.999 nM in test [5] (RLuc reporter).

Consider `COC(=O)N[C@H](C(=O)N1CCC[C@H]1c1nc2ccc3cc(-c4ccc(-c5cnc([C@@H]6[C@H]7CC[C@H](C7)N6C(=O)[C@@H](NC(=O)OC)C6CCOCC6)[nH]5)c(F)c4)ccc3c2[nH]1)C(C)C` [Example 305], for which the EC50 was 0.017 nM in test [1]; 0.001 to 0.999 nM in test [2] (genotype 1a replicon); 0.001 to 0.99 nM in test [3] (setting [8]); 0.001 to 0.99 nM in test [4]; 0.001 to 0.999 nM in test [5].

Take `COC(=O)N[C@H](C(=O)N1CC2(C[C@H]1c1nc3ccc(-c4ccc5c(c4)C(F)(F)c4cc(-c6cnc([C@@H]7CCCN7C(=O)[C@H](NC(=O)OC)c7ccccc7)[nH]6)ccc4-5)cc3[nH]1)OCCO2)C1CCOCC1` [Example 59]: the EC50 in test [1] (72 h) was 0.016 nM; in test [2] (setting [6]), 0.001 to 0.999 nM; in test [3] (setting [7]), 0.001 to 0.99 nM; in test [4], 0.001 to 0.99 nM; in test [5] (72 h, Table 2, 72 hours) it was 0.001 to 0.999 nM.

On to `COC(=O)N[C@H](C(=O)N1CCC[C@H]1c1ncc(-c2ccc(-c3ccc4c(ccc5nc([C@@H]6CCCN6C(=O)[C@@H](NC(=O)OC)C(C)C)[nH]c54)c3)c(C#CC3CC3)c2)[nH]1)C(C)C` [Example 349], for which the EC50 in test [1] is 0.005 nM; in test [2] (genotype 1a replicon), 0.001 to 0.999 nM; in test [3] (setting [8]), 0.001 to 0.99 nM; in test [4], 0.001 to 0.99 nM; in test [5], 0.001 to 0.999 nM.

In the case of `COC(=O)N[C@H](C(=O)N1CCC[C@H]1c1nc2ccc3cc(-c4ccc5c(c4)CCc4nc(C6CC7(CN6C(=O)[C@H](NC(=O)OC)c6ccccc6)OCCO7)[nH]c4-5)ccc3c2[nH]1)C(C)C` (stereo partly shown) [Example 369], the EC50 in test [1] is 0.047 nM; in test [2] (genotype 1a replicon), 0.001 to 0.999 nM; in test [3] (setting [8]) it was 0.001 to 0.99 nM; in test [4] it was 0.001 to 0.99 nM; in test [5], 0.001 to 0.999 nM.

Turning to `COC(=O)N[C@H](C(=O)N1CCC[C@H]1c1ncc(-c2ccc(-c3ccc4c(ccc5nc([C@@H]6[C@H]7CC[C@H](C7)N6C(=O)[C@@H](NC(=O)OC)C(C)C)[nH]c54)c3)cc2Cl)[nH]1)C(C)C` [Example 371], the EC50 in test [1] was 0.007 nM; in test [2] (genotype 1a replicon), 0.001 to 0.999 nM; in test [3] (setting [8]) it was over 5 nM; in test [4] it was 0.001 to 0.99 nM; in test [5], 0.001 to 0.999 nM.

Consider `COC(=O)N[C@H](C(=O)N1CCC[C@H]1c1nc2ccc3cc(-c4ccc5cc(-c6cnc([C@@H]7CCCN7C(=O)[C@H](NC(=O)C(C)(C)O)c7ccccc7)[nH]6)ccc5c4)ccc3c2[nH]1)C(C)C` [Example 287], for which the EC50 is 0.006 nM in test [1]; 0.001 to 0.999 nM in test [2] (setting [9]); 0.001 to 0.99 nM in test [3] (setting [10]); 0.001 to 0.99 nM in test [4]; 0.001 to 0.999 nM in test [5] (RLuc reporter).

For `COC(=O)N[C@H](C(=O)N1CC2(CC2)C[C@H]1c1nc(-c2ccc3c(c2)C(F)(F)c2cc(-c4ccc5nc([C@@H]6[C@H]7CC[C@H](C7)N6C(=O)[C@@H](NC(=O)OC)C(C)C)[nH]c5c4)ccc2-3)c(Cl)[nH]1)C(C)C` [Example 382], the EC50 is 0.006 nM in test [1]; 0.001 to 0.999 nM in test [2] (genotype 1a replicon); over 5 nM in test [3] (setting [8]); 0.001 to 0.99 nM in test [4]; over 44 nM in test [5].

With `COC(=O)N[C@H](C(=O)N1CCC[C@H]1c1ncc(-c2ccc3c(c2)CCc2cc(-c4cnc([C@@H]5[C@H]6CC[C@H](C6)N5C(=O)[C@@H](c5ccccc5)N5CCOCC5)[nH]4)ccc2-3)[nH]1)C(C)C` [Example 295], the EC50 in test [1] was 0.05 nM; in test [2] (genotype 1a replicon), 1 to 44 nM; in test [3] (setting [8]), 0.001 to 0.99 nM; in test [4], 0.001 to 0.99 nM; in test [5], 0.001 to 0.999 nM.

Turning to `COC(=O)N[C@H](C(=O)N1CCC[C@H]1c1ncc(-c2ccc3cc(-c4ccc(-c5cnc([C@@H]6CCCN6C(=O)OC(C)(C)C)[nH]5)cc4)ccc3c2)[nH]1)C(C)C` [Example 247], the EC50 in test [1] is 0.758 nM; in test [2] (setting [9]), 1 to 44 nM; in test [3] (setting [10]), over 5 nM; in test [4], 0.001 to 0.99 nM; in test [5] (RLuc reporter) it was over 44 nM.

On to `COC(=O)N[C@H](C(=O)N1CCC[C@H]1c1nc2ccc3cc(-c4csc5cc(-c6cnc([C@@H]7CCCN7C(=O)[C@H](NC(=O)OC)c7ccccc7)[nH]6)ccc45)ccc3c2[nH]1)C(C)C` [Example 285], for which the EC50 in test [1] is 0.006 nM; in test [2] (setting [9]), 0.001 to 0.999 nM; in test [3] (setting [10]) it was 0.001 to 0.99 nM; in test [4], 0.001 to 0.99 nM; in test [5] (RLuc reporter), 0.001 to 0.999 nM.

Source of the values: patent publication US10344019B2 (priority 2010, dated 2019).
